US5968751A, “Method for detecting the presence of protein C antibody in a fluid sample” (The Scripps Research Institute, priority 1997, dated 1999)
pIC50: −log10 of the molar value. Like-named read-outs stand apart in the source and are kept apart here. No end group written: not given here.

Tests used:
Assay type in all cases: biochemical
[1] = biological target: T1, Factor Xa (Homo sapiens, UniProt P00742); test: Factor Xa amidolytic activity towards chromogenic substrates
T1 construct: purchased Enzyme Research Laboratories, Southbend, Ind
T1 sequence (P00742 41-179 limits assumed): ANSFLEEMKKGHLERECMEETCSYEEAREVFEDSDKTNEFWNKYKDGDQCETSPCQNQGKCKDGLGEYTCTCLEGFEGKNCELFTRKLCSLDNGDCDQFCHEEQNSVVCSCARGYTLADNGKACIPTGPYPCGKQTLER
T1 sequence (P00742 235-488 limits assumed): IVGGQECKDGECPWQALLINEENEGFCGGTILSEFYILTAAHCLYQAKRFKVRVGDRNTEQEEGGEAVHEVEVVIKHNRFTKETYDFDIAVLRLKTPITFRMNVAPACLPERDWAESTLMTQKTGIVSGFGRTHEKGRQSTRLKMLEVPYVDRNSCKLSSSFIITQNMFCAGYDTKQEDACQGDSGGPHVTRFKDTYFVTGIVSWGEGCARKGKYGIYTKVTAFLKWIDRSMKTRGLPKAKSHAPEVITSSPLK
Protocol: (§1) To determine the effect of the APC-inhibiting peptides, PC311-325 and PC142-155, on the amidolytic activity of Factor Xa, amidolytic assays as described for APC in Example 5a3 were performed using 0.15 nM Factor Xa in the presence of increasing amounts of peptide. Peptide PC311-325 ranged in concentration from 0 to 100 μM whereas peptide PC142-155 ranged in concentration from 0 to 50 μM.
(§2) For the assay, 100 μl of 0.15 nM factor Xa, prepared in Example 5a5) were admixed with separate aliquots of either peptide prepared in TBS-BSA at pH 7.4 containing 0.02% NaN3 and 2 mM CaCl2 to form APC-peptide admixtures. After maintenance of the admixtures for 30 minutes at 37° C., 50 μl of 2.4 mM S-2222 in the same buffer were admixed to initiate the amidolytic reaction. The hydrolysis of the substrate was measured as described before.

[2] = biological target: prothrombinase; test: prothrombinase assay with purified proteins; details: for inhibition of prothrombinase activity in the absence of Factor Va: up to 200 μM PC311-325, up to 250 μM PC142-155
Protocol: FIG. 3 illustrates prothrombinase activity in the presence of PC311-325. The assay was performed using 1 nM factor Xa, 0.4 nM factor Va, 1.2 μM prothrombin and […] factor Xa in the absence of factor Va in TBS-BSA, 2.5 mM CaCl2, pH 7.4. Unless otherwise specified all prothrombinase assays were carried out in the presence of 50 μM phospholipid vesicles. In all cases solid symbols indicate prothrombinase activity in the presence of factor Va whereas open symbols indicate prothrombinase activity in the […] of factor Va. Solid circles with solid lines indicate prothrombinase activity (with factor Va) in the presence of PC311-325, solid squares with solid lines indicate prothrombinase activity (with factor Va) in the presence of PC311-325 but in the absence of phospholipid vesicles and solid triangles with dashed lines indicate prothrombinase activity (with factor Va) in the presence of the control peptide. Open circles with solid lines denote prothrombinase activity (without factor Va) in the presence of PC311-325 and open triangles with dashed lines denote prothrombinase activity (without factor Va) in the presence of the control peptide.
FIG. 4 illustrates prothrombinase activity in the presence of PC142-155. The assay was performed using 1 nM factor Xa, 0.4 nM factor Va, 1.2 μM prothrombin and 2.5 nM factor Xa in the absence of factor Va in TSB-BSA, 2.5 mM CaCl2, 50 μM phospholipid vesicles, pH 7.4. In all cases solid symbols indicate prothrombinase activity in the […] of factor Va. Solid circles with solid lines indicate prothrombinase activity (with factor Va) in the presence of PC142-155 and solid triangles with dashed lines indicate prothrombinase activity (with factor Va) in the presence of the scrambled peptide. Open circles with solid lines denote prothrombinase activity (without factor Va) in the presence of PC142-155 and open triangles with dashed lines denote prothrombinase activity (without factor Va) in the presence of the scrambled peptide.
Factor Va was determined via its cofactor activity in the activation of prothrombin by Factor Xa. Amounts of Factor Xa (Enzyme Research Lab.), phospholipid vesicles and prothrombin (purified as described by Stenflo, J. Biol. Chem., 25:355-363, (1976) from a barium citrate plasma precipitate purified by DEAE-sephadex chromatography) present in the assay were such that the rate of prothrombin activation was linearly dependent on factor Va and constant over the time course of the experiment. The molar concentration of Factor Xa was determined by active site titration as described by Chase et al., Biochem. Biophys. Res. Commun., 29:508-514 (1967). The molecular weights and extinction coefficients (E280 nm/mg/ml) used in the calculation of protein concentrations were as follows: prothrombin, 72,000 and 1.44; APC, 62,000 and 1.45; and Factor X, 65,300 and 1.16.
In a typical experiment, Factor Va was assayed as follows. An aliquot of the solution containing Va was admixed to a solution containing prothrombin, phospholipids and calcium in individual wells of a 96-well microtiter plate. Prothrombin activation was initiated with the mixture of Factor Xa to the Va-containing wells to form a reaction admixture. Final concentrations of reagents in the reaction mixture were the following: 1.2 μM prothrombin, 1 nM Xa, 0-0.4 nM Va, 50 μM phospholipid-vesicles (phosphatidylserine 20%/phosphatidylcholine 80%; M/M), in 0.05 M Tris-HCl at pH 7.4 containing 0.1 M NaCl, 0.5% BSA and 2.0 mM CaCl2. The reaction was maintained at 22° C. At one minute time intervals from initiation of the reaction, 20 μl aliquots of the reaction admixture were withdrawn and admixed to wells of an ELISA plate containing 80 μl TBS-BSA and 10 mM EDTA at pH 8.0 resulting in the quenching of the prothrombinase reaction. […]

[3] = biological target: T1, Factor Xa; test: Factor Xa clotting activity in NHP without added APC (Factor Xa-1 Stage clotting assay); details: for pIC50: read-out: 50% inhibition of Factor Xa clotting activity
Protocol: FIG. 1 illustrates factor Xa clotting activity in the presence of PC311-325. The assay was performed as described in Example 5a6). Solid circles with solid lines depict factor Xa activity of 0.15 nM factor Xa in the presence of PC311-325 and solid triangles with dashed lines depict factor Xa activity in the presence of the control peptide.
FIG. 2 illustrates factor Xa clotting activity in the presence of PC142-155. The assay was performed as described in Example 5a6). Solid circles with solid lines depict factor Xa activity of 0.15 nM factor Xa in NHP in the presence of PC142-155 and solid triangles with dashed lines depict factor Xa activity in the presence of the scrambled peptide.
as §1, §2
The Factor Xa-1 Stage assay was conducted as described in Example 5a6). In that assay, the IC50 for peptides PT557-571. PT463-478, PT473-487, PT481-495, X404-418, X415-429 and X329-344 were 50, >500, 25, >500, 50, 115, and 500, respectively.

[4] = NHP, 0.15 nM factor Xa, no added APC

| Molecule | effect on Factor Xa amidolytic activity towards chromogenic substrates [1] | pIC50 ([2]; presence of Factor Va, read-out: 50% inhibition of prothrombinase activity) | inhibition of prothrombinase activity in the absence of Factor Va [2] | pIC50 [3, 4] | inhibition of prothrombinase activity in the presence of Factor Va [2] | inhibition of Factor Xa activity ([3]; 100 μM peptide, NHP) [%] | pIC50 ([3]; clotting assays in plasma) | inhibition of prothrombinase activity ([2]; 100 μM peptide, presence of Factor Va) [%] | inhibition of Factor Xa activity ([3]; 50 μM peptide, NHP) [%] | inhibition of Factor Xa activity ([3]; 50 μM peptide, NHP, listed as scrambled control peptide) [%] |
| --- | --- | --- | --- | --- | --- | --- | --- | --- | --- | --- |
| KRNRTFVLNFIKIPV-NH2 [PC311-325, Lys-Arg-Asn-Arg-Thr-Phe-Val-Leu-Asn-Phe-Ile-Lys-Ile-Pro-Val] | no significant effect | 5.10 | very little if any significant inhibition | 5.15 | – | – | – | – | – | – |
| VKFTIRVFNPRNLKI [Control Peptide, reference compound] | – | – | very little if any significant inhibition | – | very little if any significant inhibition | 30 | – | – | – | – |
| CSCC[C@H](NC(=O)[C@H](CCCNC(=N)N)NC(=O)[C@H](CCCCN)NC(=O)[C@H](Cc1c[nH]c2ccccc12)NC(=O)[C@@H]1CCCN1C(=O)[C@H](CCCNC(=N)N)NC(=O)CN)C(=O)N[C@@H](CCC(=O)O)C(=O)N[C@@H](CCCCN)C(=O)N[C@@H](CCCCN)C(=O)N[C@@H](CCCNC(=N)N)C(=O)N[C@@H](CO)C(=O)N[C@@H](Cc1c[nH]cn1)C(=O)N[C@@H](CC(C)C)C(=O)N[C@@H](CS)C(N)=O [PC142-155, Gly-Arg-Pro-Trp-Lys-Arg-Met-Glu-Lys-Lys-Arg-Ser-His-Leu] | – | – | – | 5.00 | – | – | 5.30 | – | – | – |
| MHKLREGKWRPKSR [Scrambled peptide, reference compound] | no significant effect | – | – | – | small amount of inhibition | – | – | 40 | 40 | 37 |
